Earlier results, collected in patent US20110190266A1, “5,6,6a,7,8,9-HEXAHYDRO-2H-PYRIDOPHTHALAZINONE INHIBITORS OF POLY(ADP-RIBOSE)POLYMERASE (PARP)” (priority 2010, published 2011).
Where two headings read alike, the source gives them in different places.

Assays:
CAPAN-1 cells = CAPAN-1 cells in DMEM supplemented with FCS (20% v/v), glutamine and antibiotics
[1] = tested on: BRCA2-deficient cell line V-C8; conditions: BRCA2-deficient V-C8 compared with the BRCA2 wild type control
PARP-1 = PARP-1 (Homo sapiens, UniProt P09874)
Chain of PARP-1 (P09874 whole entry, species assumed): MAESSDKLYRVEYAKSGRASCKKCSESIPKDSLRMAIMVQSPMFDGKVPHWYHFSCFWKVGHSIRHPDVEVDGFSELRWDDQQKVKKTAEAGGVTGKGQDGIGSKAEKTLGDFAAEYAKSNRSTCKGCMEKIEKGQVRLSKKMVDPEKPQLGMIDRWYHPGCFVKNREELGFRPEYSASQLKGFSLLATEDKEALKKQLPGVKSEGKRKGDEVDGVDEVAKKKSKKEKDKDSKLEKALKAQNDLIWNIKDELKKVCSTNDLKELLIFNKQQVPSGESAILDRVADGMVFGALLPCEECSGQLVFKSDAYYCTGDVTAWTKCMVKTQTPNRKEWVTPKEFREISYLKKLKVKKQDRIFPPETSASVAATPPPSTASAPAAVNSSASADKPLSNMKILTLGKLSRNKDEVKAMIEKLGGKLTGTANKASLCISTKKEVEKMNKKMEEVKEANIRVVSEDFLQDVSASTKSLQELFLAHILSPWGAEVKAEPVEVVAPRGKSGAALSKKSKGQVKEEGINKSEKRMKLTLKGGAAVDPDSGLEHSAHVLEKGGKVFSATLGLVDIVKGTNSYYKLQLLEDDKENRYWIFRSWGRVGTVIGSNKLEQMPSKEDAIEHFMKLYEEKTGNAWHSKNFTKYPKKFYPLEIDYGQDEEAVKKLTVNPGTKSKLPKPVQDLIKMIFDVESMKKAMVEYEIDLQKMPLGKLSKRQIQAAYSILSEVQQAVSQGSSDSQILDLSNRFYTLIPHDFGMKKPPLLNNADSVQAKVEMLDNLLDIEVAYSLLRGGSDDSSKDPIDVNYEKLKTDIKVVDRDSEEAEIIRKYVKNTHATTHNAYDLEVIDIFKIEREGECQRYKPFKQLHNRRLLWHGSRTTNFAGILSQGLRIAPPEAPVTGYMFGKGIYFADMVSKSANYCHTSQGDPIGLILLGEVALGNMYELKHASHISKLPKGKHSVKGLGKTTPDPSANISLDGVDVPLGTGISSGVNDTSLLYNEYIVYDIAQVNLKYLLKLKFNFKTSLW

Structure (SMILES) | in vivo efficacy, tumor growth (BRCA2-deficient tumors) | sensitivity to PARP inhibition in clonogenic survival assay (CAPAN-1 cells) | sensitivity in clonogenic survival assay [1] | Ki (PARP-1; PARP-1 inhibitor) [nM] | Ki (PARP-1; moderately potent PARP-1 inhibitor) [nM]
O=C1CCC(=O)N1c1cc(Cc2n[nH]c(=O)c3ccccc23)ccc1F [KU0058684] | in vivo efficacy in blocking the growth of BRCA2-deficient tumors | showing sensitivity |  |  | 
CN(C)Cc1ccc(-c2nc3cccc4c3n2CCNC4=O)cc1 [AG14361] |  |  | exhibited sensitivity | 5 | 
Cc1nc2c(O)cccc2c(=O)[nH]1 [NU1025] |  |  | exhibited sensitivity |  | 50
